# Results from US8598155B2, “Imidazo[5,1-f][1,2,4]triazines for the treatment of neurological disorders” (Pfizer Inc., priority 2011, dated 2013).
# pIC50: −log10 of the molar value.
# Target: human full-length PDE2A3 enzyme (Homo sapiens (Human), UniProt O00408)
# Conditions: read-out: IC50 (assay validation control); PDE2A3 SPA validation; IC50 values obtained were within 3× of literature values
# Description: Measurement of Recombinant Human PDE2A3 Inhibition by SPA Technology
# In the present assay, the activity of the test substances on human full-length PDE2A3 enzyme was determined using the [^3H]-cGMP scintillation proximity assay (SPA) modified from the Amersham TRKQ7100 instructions (GE Healthcare, USA). PDE2A3 protein was obtained from FLAG purification of sf21 insect cells using standard affinity purification procedures for this tag (anti-FLAG M2, Sigma Aldrich). Briefly, the SPA assays were performed using PDE SPA yttrium silicate beads (Perkin Elmer RPNQ0024) which bind preferentially to the linear nucleotide, GMP, compared to the cyclic nucleotide, cGMP. The, ^3H-GMP product was detected using a Wallac MicroBeta scintillation counter. The reaction time was chosen with respect to the amount of time in which 10-20% of substrate was hydrolyzed by the enzyme.
# The corresponding IC50 values of the compounds for the inhibition of PDE activities are determined from the concentration-effect curves by means of non-linear regression.
# Sequence of human full-length PDE2A3 enzyme (O00408 whole entry): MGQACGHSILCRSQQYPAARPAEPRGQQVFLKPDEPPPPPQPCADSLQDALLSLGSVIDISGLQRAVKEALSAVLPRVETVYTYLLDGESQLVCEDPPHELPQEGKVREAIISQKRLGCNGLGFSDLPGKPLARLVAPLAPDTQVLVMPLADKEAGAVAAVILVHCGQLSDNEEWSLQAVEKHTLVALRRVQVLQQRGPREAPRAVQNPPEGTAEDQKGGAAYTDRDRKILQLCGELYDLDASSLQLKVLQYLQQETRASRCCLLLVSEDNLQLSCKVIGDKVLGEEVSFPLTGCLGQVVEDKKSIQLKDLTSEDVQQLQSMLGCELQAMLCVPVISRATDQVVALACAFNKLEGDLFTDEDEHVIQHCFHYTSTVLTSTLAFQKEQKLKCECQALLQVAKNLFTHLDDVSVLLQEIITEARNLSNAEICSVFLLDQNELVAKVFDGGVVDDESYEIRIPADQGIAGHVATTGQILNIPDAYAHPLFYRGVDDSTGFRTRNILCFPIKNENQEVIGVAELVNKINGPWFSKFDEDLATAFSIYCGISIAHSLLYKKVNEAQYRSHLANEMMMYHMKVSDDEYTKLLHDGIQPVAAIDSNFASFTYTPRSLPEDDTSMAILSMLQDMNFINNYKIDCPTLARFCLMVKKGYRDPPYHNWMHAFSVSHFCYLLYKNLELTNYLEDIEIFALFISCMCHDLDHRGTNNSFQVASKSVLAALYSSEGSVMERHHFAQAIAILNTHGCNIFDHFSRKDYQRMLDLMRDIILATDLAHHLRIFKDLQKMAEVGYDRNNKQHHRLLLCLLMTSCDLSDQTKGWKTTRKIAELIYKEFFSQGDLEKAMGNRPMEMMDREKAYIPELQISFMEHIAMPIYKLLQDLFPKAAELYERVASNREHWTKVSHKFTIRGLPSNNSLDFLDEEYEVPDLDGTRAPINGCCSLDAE
structure (smiles),measurement,value
CCCCCC[C@@H]([C@@H](C)O)n1cnc2c(N)ncnc21 (racemic) [EHNA],pIC50,5.77
